Assay results from patent US4352803A, “Novel naphthyridine derivatives, intermediates thereof, processes for preparation thereof, and use thereof” (Dainippon Pharmaceutical Co., Ltd., priority 1978, dated 1982).
In brackets after ≈: the same amount, converted by molar mass. Read-outs that look alike come from different tables or passages of the source.

Experiments:
[1] = system: Staphylococcus aureus No. 50774; test: in vivo efficacy against systemic infection in mice, Staphylococcus aureus No. 50774; details: NO.50774, in Mus musculus, po, 336 h
Protocol: Male mice (ddY) weighing about 20 g
Intravenous infection with (about
5 × 10^8 cells/mouse) of a bacterial
(§2) Twice, about 5 minutes and 6 hours after infection.

[2] = system: Staphylococcus aureus No. 50774; test: In vitro antibacterial activity (MIC), Staphylococcus aureus No. 50774; type: cell-based
Excerpt: (§1) (MIC) (μg/ml) Method; Chemotherapy, 22(6), 1126 (1974)

[3] = system: Serratia marcescens IFC 3736; test: In vitro antibacterial activity (MIC), Serratia marcescens IFC 3736; type: cell-based; details: IFC3736; Serratia marcescens IFC 3736; read-out: minimum inhibitory concentration (MIC)
Excerpt: as §1

[4] = system: Staphylococcus aureus 209P JC-1; test: In vitro antibacterial activity (MIC), Staphylococcus aureus 209P JC-1; type: cell-based; details: Staphylococcus aureus 209P JC-1; read-out: minimum inhibitory concentration (MIC)
Excerpt: as §1

[5] = system: Salmonella enteritidis No. 1891; test: In vitro antibacterial activity (MIC), Salmonella enteritidis No. 1891; type: cell-based; details: Salmonella enterica, read-out: minimum inhibitory concentration (MIC)
Excerpt: as §1

[6] = system: Proteus morganii Kono; test: In vitro antibacterial activity (MIC), Proteus morganii Kono; type: cell-based; details: Morganella morganii, read-out: minimum inhibitory concentration (MIC)
Excerpt: as §1

[7] = system: Escherichia coli P-5101; test: In vitro antibacterial activity (MIC), Escherichia coli P-5101; type: cell-based; details: Escherichia coli, P5101, read-out: minimum inhibitory concentration (MIC)
Excerpt: as §1

[8] = in vivo; details: mouse, in vivo, po
Protocol: The number of dead mice was counted after 7 days, and the value of median lethal dose (LD50, mg/kg) was calculated in accordance with the Behrens-Kaerber method.

[9] = system: Pseudomonas aeruginosa Tsuchijima; test: In vitro antibacterial activity (MIC), Pseudomonas aeruginosa Tsuchijima; type: cell-based; details: read-out: minimum inhibitory concentration (MIC)
Excerpt: as §1

[10] = system: Escherichia coli NIHJ JC-2; test: In vitro antibacterial activity (MIC), Escherichia coli NIHJ JC-2; type: cell-based; details: Escherichia coli, NIHJJC2, read-out: minimum inhibitory concentration (MIC)
Excerpt: as §1

[11] = system: Proteus mirabilis P-2381; test: In vitro antibacterial activity (MIC), Proteus mirabilis P-2381; type: cell-based; details: Proteus mirabilis, P2381, read-out: minimum inhibitory concentration (MIC)
Excerpt: as §1

[12] = system: Pseudomonas aeruginosa No. 12; test: In vitro antibacterial activity (MIC), Pseudomonas aeruginosa No. 12; type: cell-based
Excerpt: as §1

[13] = system: Shigella flexneri 4a P-330; test: In vitro antibacterial activity (MIC), Shigella flexneri 4a P-330; type: cell-based; details: 4AP330, read-out: minimum inhibitory concentration (MIC)
Excerpt: as §1

[14] = system: Streptococcus faecalis P-2473; test: In vitro antibacterial activity (MIC), Streptococcus faecalis P-2473; type: cell-based; details: Enterococcus faecalis, P2473; Streptococcus faecalis P-2473; read-out: minimum inhibitory concentration (MIC)
Excerpt: as §1

[15] = system: Escherichia coli P-5101; test: in vivo efficacy against systemic infection in mice, Escherichia coli P-5101; details: P5101, in Mus musculus, po, 168 h
Protocol: Male mice (ddY) weighing about 20 g
Intraperitoneal infection with (about
9 × 10^6 cells/mouse) of a bacterial
(§3) suspension in trypto-soy broth with 4% mucin.
as §2

[16] = system: Corynebacterium pyogenes C-21; test: In vitro antibacterial activity (MIC), Corynebacterium pyogenes C-21; type: cell-based; details: Rhodococcus (subgen. Prescottella) equi, C21; Corynebacterium pyogenes C-21; read-out: minimum inhibitory concentration (MIC)
Excerpt: as §1

[17] = system: Salmonella typhimurium 8-9; test: In vitro antibacterial activity (MIC), Salmonella typhimurium 8-9; type: cell-based; details: Salmonella enterica, read-out: minimum inhibitory concentration (MIC)
Excerpt: as §1

[18] = system: Pseudomonas aeruginosa No. 12; test: in vivo efficacy against systemic infection in mice, Pseudomonas aeruginosa No. 12; details: NO.12, in Mus musculus, po, 168 h
Protocol: Male mice (ddY) weighing about 20 g
(3) Pseudomonas aeruginosa No. 12;
(about 5 × 10^3 cells/mouse) of a bacterial
as §3, §2
The numerals in the table show ED50 (mg/kg). ED50 values were

[19] = system: Enterobacter cloacae P-2540; test: In vitro antibacterial activity (MIC), Enterobacter cloacae P-2540; type: cell-based
Excerpt: as §1

[20] = system: Streptococcus pyogenes 65A; test: In vitro antibacterial activity (MIC), Streptococcus pyogenes 65A; type: cell-based; details: read-out: minimum inhibitory concentration (MIC)
Excerpt: as §1

[21] = system: Escherichia coli P-140a; test: In vitro antibacterial activity (MIC), Escherichia coli P-140a; type: cell-based; details: read-out: minimum inhibitory concentration (MIC)
Excerpt: as §1

[22] = system: Gram-positive and Gram-negative bacteria; test: in vivo therapeutic efficacy against systemic infections in mice (overall); design: species or system mice (ddY)
[23] = system: Shigella flexneri 2a; test: In vitro antibacterial activity (MIC), Shigella flexneri 2a; type: cell-based; details: read-out: minimum inhibitory concentration (MIC)
Excerpt: as §1

[24] = system: Klebsiella pneumoniae No. 13; test: In vitro antibacterial activity (MIC), Klebsiella pneumoniae No. 13; type: cell-based; details: Klebsiella pneumoniae No. 13; read-out: minimum inhibitory concentration (MIC)
Excerpt: as §1

[25] = system: Gram-positive bacteria and Gram-negative bacteria; test: In vitro antibacterial activity against 19 strains of bacteria (overall); type: cell-based; details: comparisons are with compounds of the invention
Excerpt: as §1

Row | SMILES | ED50 [1] [mg/kg] | MIC [3] [µg/mL] | MIC [4] [µg/mL] | MIC [7] [µg/mL] | LD50 at 168 h [8] [mg/kg] | MIC [10] [µg/mL] | MIC [11] [µg/mL] | MIC [13] [µg/mL] | MIC [14] [µg/mL] | ED50 [15] [mg/kg] | MIC [16] [µg/mL] | ED50 [18] [mg/kg] | MIC [23] [µg/mL] | MIC [24] [µg/mL] | further results
1 | CC1(C)S[C@@H]2[C@H](NC(=O)[C@H](N)c3ccccc3)C(=O)N2[C@H]1C(=O)O [H, D-α-Aminobenzylpenicillin] | 2.2 | 25 (≈ 71.5 µM) | 0.05 (≈ 0.143 µM) | 6.25 (≈ 17.9 µM) | > 5000 | 6.25 (≈ 17.9 µM) | 3.13 (≈ 8.96 µM) | 6.25 (≈ 17.9 µM) | 1.56 (≈ 4.46 µM) | 43.5 | 1.56 (≈ 4.46 µM) | > 400 | 3.13 (≈ 8.96 µM) | 100 (≈ 286 µM) | MIC ([2]; Staphylococcus aureus No. 50774, read-out: minimum inhibitory concentration (MIC)): 0.1 µg/mL (≈ 0.286 µM); MIC ([5]; Salmonella enteritidis No. 1891): 0.2 µg/mL (≈ 0.572 µM); MIC ([6]; Proteus morganii Kono): 100 µg/mL (≈ 286 µM); MIC ([9]; Pseudomonas aeruginosa): > 200 µg/mL; MIC ([12]; Pseudomonas aeruginosa, NO.12, read-out: minimum inhibitory concentration (MIC)): > 200 µg/mL; MIC ([17]; Salmonella typhimurium 8-9): 0.39 µg/mL (≈ 1.12 µM); MIC ([19]; P2540, Enterobacter cloacae P-2540, read-out: minimum inhibitory concentration (MIC)): > 200 µg/mL; MIC ([20]; Streptococcus pyogenes 65A): 0.025 µg/mL (≈ 0.0715 µM); MIC ([21]; P140A, Escherichia coli P-140a): 200 µg/mL (≈ 572 µM); therapeutic effects in vivo against Gram-negative bacteria, relative to compounds 1, 1' and 2 ([22]; Gram-negative, particularly Pseudomonas aeruginosa): clearly inferior
2 | CCn1cc(C(=O)O)c(=O)c2cc(Cl)c(N3CCNCC3)cc21 [Compound C, 6-Chloro-1-ethyl-1,4-dihydro-4-oxo-7-(1-piperazinyl)quinoline-3-carboxylic acid] | ~100 | 0.78 (≈ 2.32 µM) | 0.78 (≈ 2.32 µM) | 0.2 (≈ 0.596 µM) | > 2000 | 0.39 (≈ 1.16 µM) | 0.39 (≈ 1.16 µM) | 0.2 (≈ 0.596 µM) | 6.25 (≈ 18.6 µM) | ~15 | 1.56 (≈ 4.65 µM) | > 100 | 0.39 (≈ 1.16 µM) | 0.78 (≈ 2.32 µM) | MIC ([2]; Staphylococcus aureus, NO.50774, read-out: minimum inhibitory concentration (MIC)): 1.56 µg/mL (≈ 4.65 µM); MIC ([5]; ENTERITIDIS): 0.2 µg/mL (≈ 0.596 µM); MIC [6]: 0.39 µg/mL (≈ 1.16 µM); MIC ([9]; Pseudomonas aeruginosa Tsuchijima): 3.13 µg/mL (≈ 9.32 µM); MIC ([12]; Pseudomonas aeruginosa No. 12, read-out: minimum inhibitory concentration (MIC)): 3.13 µg/mL (≈ 9.32 µM); MIC ([17]; TYPHIMURIUM): 0.2 µg/mL (≈ 0.596 µM); MIC ([19]; Enterobacter cloacae, P2540, read-out: minimum inhibitory concentration (MIC)): 0.2 µg/mL (≈ 0.596 µM); antibacterial activity (in words) [25]: clearly inferior; MIC ([20]; Streptococcus pyogenes, 65A): 6.25 µg/mL (≈ 18.6 µM); MIC ([21]; Escherichia coli): 0.2 µg/mL (≈ 0.596 µM); therapeutic effect / in vivo antibacterial activity (in words) ([22]; systemic infections with Gram-positive and Gram-negative bacteria): clearly inferior
